Experimental data taken from paper PMC10826971, “Evaluating protein cross-linking as a therapeutic strategy to stabilize SOD1 variants in a mouse model of familial ALS” (PLOS Biology, 2024).

Experiments:
[1] = biological target: SOD1^G93A (Homo sapiens, UniProt P00441, G94A); assay: Pharmacodynamic profiling: cross-linked SOD1^G93A dimer in blood (RBC) by LC-MS; format: in vivo, mouse; parameters: Extraction of SOD1^G93A from red blood cell (RBC) protein was performed as previously described; tissue Jackson Laboratory 002726; host or cells: red blood cells of transgenic B6SJL-Tg(SOD1*G93A)1Gur/J mice; conditions: for % Dimer (cross-linked SOD1^G93A in blood): 10 mg/kg IV single dose
Chain of SOD1^G93A (P00441 2-154 G94A limits assumed): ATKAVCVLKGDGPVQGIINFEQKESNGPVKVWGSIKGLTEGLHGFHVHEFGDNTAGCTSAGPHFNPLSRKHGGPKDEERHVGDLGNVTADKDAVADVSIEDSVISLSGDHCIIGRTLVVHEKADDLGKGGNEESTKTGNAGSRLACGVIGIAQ

[2] = biological target: T1, SOD1^G85R (Homo sapiens, UniProt P00441, G86R); assay: Differential scanning fluorimetry (DSF), thermal stability; format: binding
T1 construct: made in house; host or cells: EGy118ΔSOD1 yeast, YEp351 expression vector
T1 sequence (P00441 2-154 G86R limits assumed): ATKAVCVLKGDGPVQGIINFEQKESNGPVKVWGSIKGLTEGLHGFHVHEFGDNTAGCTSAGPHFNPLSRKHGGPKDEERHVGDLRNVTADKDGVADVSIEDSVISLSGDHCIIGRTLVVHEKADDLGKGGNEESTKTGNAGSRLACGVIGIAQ
Description: (§1) To understand how cross-linking effects SOD1 stability, we quantified changes in unfolding temperature (ΔTu, hereafter thermal stability).
(§2) The effect of cross-link formation on the thermal stability of SOD1 was determined by differential scanning fluorimetry as previously described. […] After incubation, SYPRO Orange (Invitrogen Corporation, Carlsbad, California, USA), an environmentally sensitive fluorescent dye which is quenched in an aqueous environment but becomes unquenched once it binds hydrophobic residues, was added to the reaction mixture to a final concentration of 200×. The samples were then transferred to a fast optical 96-well reaction plate (Applied Biosystem, Life Technologies Corporation, Carlsbad, California, USA) and loaded on to the real-time PCR machine (Applied Biosystem, Life Technologies Corporation, Carlsbad, California, USA) after plate was spun down to eliminate bubbles. The Melt curve template in StepOne Plus software was used to set up a method. […] The final concentration of DMSO in the reaction mixture was checked as it contributes to the denaturation of proteins. Dilutions were performed accordingly to maintain the final concentration of DMSO less than 1% (vol/vol). All samples were run in technical triplicates. The background data was subtracted from the average relative fluorescence and average derivate for each temperature point, and the data were normalized before Tus were quantified by averaging the negative first derivative of relative fluorescence of all 3 runs and identifying the local minima.

[3] = biological target: T2, SOD1^H46R (Homo sapiens, UniProt P00441, H47R); assay: as above; format: binding
T2 construct: made in house; host or cells: EGy118ΔSOD1 yeast, YEp351 expression vector
T2 sequence (P00441 2-154 H47R limits assumed): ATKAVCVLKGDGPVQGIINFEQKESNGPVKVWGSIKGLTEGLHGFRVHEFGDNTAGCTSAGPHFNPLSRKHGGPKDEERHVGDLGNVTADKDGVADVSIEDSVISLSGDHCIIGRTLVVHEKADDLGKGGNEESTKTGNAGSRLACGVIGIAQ
Description: as §1, §2

With [O-][S+]1CCCCS1 (stereo not drawn) [S-XL6, 1,2-dithiane-1-oxide] as the compound, how does the “% Dimer (cross-linked SOD1^G93A in blood)” value (shortened to “% Dimer”) ([1]; 0.5 h post dose) read?
Its value is 38%.

What about the “% Dimer” value ([1]; 1 h post dose) of the same compound?
The value was 63%.

What about the “% Dimer” value ([1]; 2 h post dose) of the same compound?
The value was 55%.

What about the “% Dimer” value ([1]; 4 h post dose) of the same compound?
The value was 53%.

And the “% Dimer” value ([1]; 8 h post dose)?
The value was 51%.

What about the “% Dimer” value ([1]; 12 h post dose) of the same compound?
The value was 42%.

And the “% Dimer” value ([1]; 24 h post dose)?
Its value is 26%.

What about the “% Dimer” value ([1]; 48 h post dose) of the same compound?
Its value is 20%.

What about the “% Dimer” value ([1]; 72 h post dose) of the same compound?
The value was 16%.

What about the “% Dimer” value ([1]; […] post dose) of the same compound?
Its value is 6%.

What about the “Target engagement in blood and brain” value ([1]; G93A fALS mouse) of the same compound?
The value was “SOD1 dimer formation in G93A fALS mouse blood and brain”.

What about the “unfolding temperature (Tu) of S-XL6 cross-linked protein” value ([2]; 10-fold molar excess S-XL6, 4 h 37°C, untreated 40.8°C) of the same compound?
Its value is 65.1 °C.

And the “Normalized ROX” value ([2]; SOD1 G85R Protein+S-XL6, Avg. Temp 88.557)?
Its value is 0.19.

What about the “Normalized ROX” value ([2]; SOD1 G85R Protein+S-XL6, Avg. Temp 88.853) of the same compound?
The value was 0.18.

What about the “Normalized ROX” value ([2]; SOD1 G85R Protein+S-XL6, Avg. Temp 89.160) of the same compound?
The value was 0.17.

What about the “Normalized ROX” value ([2]; SOD1 G85R Protein+S-XL6, Avg. Temp 89.454) of the same compound?
Its value is 0.17.

What about the “Normalized ROX” value ([2]; SOD1 G85R Protein+S-XL6, Avg. Temp 89.762) of the same compound?
Its value is 0.16.

What about the “Normalized ROX” value ([2]; SOD1 G85R Protein+S-XL6, Avg. Temp 90.051) of the same compound?
The value was 0.15.

What about the “Normalized ROX” value ([2]; SOD1 G85R Protein+S-XL6, Avg. Temp 90.354) of the same compound?
Its value is 0.15.

And the “Normalized ROX” value ([2]; SOD1 G85R Protein+S-XL6, Avg. Temp 90.655)?
Its value is 0.14.

What about the “Normalized ROX” value ([2]; SOD1 G85R Protein+S-XL6, Avg. Temp 90.952) of the same compound?
Its value is 0.13.

What about the “Normalized ROX” value ([2]; SOD1 G85R Protein+S-XL6, Avg. Temp 91.251) of the same compound?
The value was 0.13.

And the “Normalized ROX” value ([2]; SOD1 G85R Protein+S-XL6, Avg. Temp 91.555)?
Its value is 0.12.

What about the “Normalized ROX” value ([2]; SOD1 G85R Protein+S-XL6, Avg. Temp 91.855) of the same compound?
Its value is 0.11.

What about the “Normalized ROX” value ([2]; SOD1 G85R Protein+S-XL6, Avg. Temp 92.157) of the same compound?
The value was 0.11.

And the “Normalized ROX” value ([2]; SOD1 G85R Protein+S-XL6, Avg. Temp 92.449)?
Its value is 0.10.

What about the “Normalized ROX” value ([2]; SOD1 G85R Protein+S-XL6, Avg. Temp 92.753) of the same compound?
The value was 0.10.

What about the “Normalized ROX” value ([2]; SOD1 G85R Protein+S-XL6, Avg. Temp 93.058) of the same compound?
The value was 0.09.

And the “Normalized ROX” value ([2]; SOD1 G85R Protein+S-XL6, Avg. Temp 93.353)?
The value was 0.09.

And the “Normalized ROX” value ([2]; SOD1 G85R Protein+S-XL6, Avg. Temp 93.651)?
Its value is 0.08.

And the “Normalized ROX” value ([2]; SOD1 G85R Protein+S-XL6, Avg. Temp 93.955)?
Its value is 0.0744.

And the “Normalized ROX” value ([2]; SOD1 G85R Protein+S-XL6, Avg. Temp 94.247)?
The value was 0.07.

What about the “Normalized ROX” value ([2]; SOD1 G85R Protein+S-XL6, Avg. Temp 94.552) of the same compound?
Its value is 0.07.

What about the “Normalized ROX” value ([2]; SOD1 G85R Protein+S-XL6, Avg. Temp 94.853) of the same compound?
Its value is 0.06.

And the “Normalized ROX” value ([2]; SOD1 G85R Protein+S-XL6, Avg. Temp 95.157)?
The value was 0.06.

And the “Normalized ROX” value ([2]; SOD1 G85R Protein+S-XL6, Avg. Temp 95.458)?
The value was 0.05.

What about the “Normalized ROX” value ([2]; SOD1 G85R Protein+S-XL6, Avg. Temp 95.752) of the same compound?
Its value is 0.05.

And the “Normalized ROX” value ([2]; SOD1 G85R Protein+S-XL6, Avg. Temp 96.054)?
The value was 0.044.

And the “Normalized ROX” value ([2]; SOD1 G85R Protein+S-XL6, Avg. Temp 96.360)?
Its value is 0.04.

And the “Normalized ROX” value ([2]; SOD1 G85R Protein+S-XL6, Avg. Temp 96.652)?
Its value is 0.0332.

And the “Normalized ROX” value ([2]; SOD1 G85R Protein+S-XL6, Avg. Temp 96.955)?
Its value is 0.0323.

And the “Normalized ROX” value ([2]; SOD1 G85R Protein+S-XL6, Avg. Temp 97.253)?
Its value is 0.0276.

And the “Normalized ROX” value ([2]; SOD1 G85R Protein+S-XL6, Avg. Temp 97.554)?
Its value is 0.0216.

And the “Normalized ROX” value ([2]; SOD1 G85R Protein+S-XL6, Avg. Temp 97.851)?
The value was 0.02.

What about the “Normalized ROX” value ([2]; SOD1 G85R Protein+S-XL6, Avg. Temp 98.161) of the same compound?
The value was 0.0177.

And the “Normalized ROX” value ([2]; SOD1 G85R Protein+S-XL6, Avg. Temp 98.455)?
Its value is 0.0121.

What about the “Normalized ROX” value ([2]; SOD1 G85R Protein+S-XL6, Avg. Temp 98.751) of the same compound?
The value was 0.0106.

What about the “Normalized ROX” value ([2]; SOD1 G85R Protein+S-XL6, Avg. Temp 99.056) of the same compound?
Its value is 0.00748.

And the “Normalized ROX” value ([2]; SOD1 G85R Protein+S-XL6, Avg. Temp 99.359)?
The value was 0.00339.

What about the “Normalized ROX” value ([2]; SOD1 G85R Protein+S-XL6, Avg. Temp 99.657) of the same compound?
Its value is 0.00106.

What about the “Normalized ROX” value ([2]; SOD1 G85R Protein+S-XL6, Avg. Temp 99.866) of the same compound?
The value was 0.00.

What about the “unfolding temperature (Tu) of S-XL6 cross-linked protein” value ([3]; 10-fold molar excess S-XL6, 4 h 37°C, untreated 46.3°C) of the same compound?
The value was 69.3 °C.

What about the “Normalized ROX” value ([3]; SOD1 H46R Protein+S-XL6, Avg. Temp 88.537) of the same compound?
The value was 0.19.

What about the “Normalized ROX” value ([3]; SOD1 H46R Protein+S-XL6, Avg. Temp 88.845) of the same compound?
The value was 0.18.

What about the “Normalized ROX” value ([3]; SOD1 H46R Protein+S-XL6, Avg. Temp 89.124) of the same compound?
Its value is 0.17.

And the “Normalized ROX” value ([3]; SOD1 H46R Protein+S-XL6, Avg. Temp 89.441)?
The value was 0.16.

And the “Normalized ROX” value ([3]; SOD1 H46R Protein+S-XL6, Avg. Temp 89.738)?
The value was 0.15.
